Reference: patent publication US11945825B2, “Compositions and methods for regulating glucose homeostasis and insulin action” (UNIVERSITY OF VIRGINIA PATENT FOUNDATION, priority 2012, dated 2024)

What was measured:
[1] = tested on: AMP-activated protein kinase; details: L6 cells, 40 min
L6 myoblasts [2] = details: 1 μM uncoupler, 1 μM oligomycin
L6 cells [3] = tested on: L6 cells
L6 cells [4] = details: 20 μM, 20 min
L6 myotubes = details: 5 min treatment
[5] = tested on: isolated mouse liver mitochondria; details: 5 μM
L6 myoblasts [6] = experiment: Oxygen consumption rate dose response (Seahorse XF24); assay type: cell-based, rat
[7] = patients consuming ˜300 mg/d, over several months, no change in food intake; cited from earlier work
[8] = mouse, in vivo; cited from earlier work

Row | Structure (SMILES) | AMPK activation [1] | respiration in the presence of oligomycin (L6 myoblasts [2]) | plasma membrane potential (L6 cells [3]; current clamp, resting membrane potential, 10 μM) | current under voltage clamp (L6 cells [3]; holding potential −70 mV, 1 μM and 10 μM) | plasma membrane conductance (L6 cells [3]; voltage clamp, −130 mV to −60 mV) | cellular ATP levels (L6 cells [4]) | intracellular acidification relative to BAM15 (L6 myotubes) | electron donation to the ETC ([5]; after 2 μM rotenone) | effect on complex II (succinate-stimulated respiration) ([5]; succinate added at 20 min) | shape of oxygen consumption dose response curve (L6 myoblasts [6]) | average weight loss [7] | metabolic effects in mice [8]
1 | N#CC(C#N)=NNc1ccc(OC(F)(F)F)cc1 [FCCP, carbonyl cyanide p-trifluoromethoxyphenylhydrazone] | activation of AMP-activated protein kinase | increase oxygen consumption in the presence of oligomycin | reversible and repeatable plasma membrane depolarization | induced an inward current | increase in conductance | loss of cellular ATP | 2 fold | do not donate electrons to the ETC downstream of complex I | do not affect complex II | inverted bell shaped curve of effectiveness |  | 
2 | O=[N+]([O-])c1ccc(O)c([N+](=O)[O-])c1 [DNP, 2,4-dinitrophenol] |  |  |  |  |  |  |  |  |  |  | 1.5 pounds per week | improved serological glucose, triglyceride, and insulin levels, as well as decreased oxidative damage, reduced body weight, and increased longevity
